What was measured:
[1] = target: Prothrombin (Homo sapiens, UniProt P00734); experiment: Binding affinity towards thrombin was evaluated
[2] = target: Serine protease 1 (Homo sapiens, UniProt P07477); experiment: Binding affinity towards trypsin was evaluated
[3] = Compound was evaluated for the half life period after iv administration in cynomolgus monkey; assay type: ADME, organism-based; settings: cercopithecidae, in vivo
[4] = Oral bioavailability after 5 mg/kg in cynomolgus monkey was determined; assay type: ADME, organism-based; settings: cercopithecidae, in vivo, read-out: Bioavailabiility
[5] = Compound was evaluated for the oral bioavailability after oral administration in dog.; assay type: ADME, organism-based, Canis lupus familiaris; settings: in vivo, read-out: Bioavailabiility
[6] = Maximum concentration was evaluated after 75 min after administration in dog; assay type: ADME, organism-based, Canis lupus familiaris; settings: in vivo
[7] = Compound was evaluated for the half life period after iv administration in Beagle dog.; assay type: ADME, organism-based, Canis lupus familiaris; settings: in vivo
[8] = tested on: Rattus norvegicus; experiment: Incidence of occlusion was determined in the rat ferric chloride arterial thrombosis model at 10 dose ug/kg/min after intravenous administration; 0/9; assay type: functional
[9] = tested on: Rattus norvegicus; experiment: Incidence of occlusion was determined in the rat ferric chloride arterial thrombosis model at 3 dose ug/kg/min after intravenous administration; 2/6; assay type: functional
[10] = tested on: Rattus norvegicus; experiment: Incidence of occlusion was determined in the rat ferric chloride arterial thrombosis model at 5 dose ug/kg/min after intravenous administration; 1/6; assay type: functional
[11] = tested on: Rattus norvegicus; experiment: Incidence of occlusion was determined in the rat ferric chloride arterial thrombosis model at 1 dose ug/kg/min after intravenous administration; 5/6; assay type: functional

Chain of Serine protease 1 (P07477 whole entry): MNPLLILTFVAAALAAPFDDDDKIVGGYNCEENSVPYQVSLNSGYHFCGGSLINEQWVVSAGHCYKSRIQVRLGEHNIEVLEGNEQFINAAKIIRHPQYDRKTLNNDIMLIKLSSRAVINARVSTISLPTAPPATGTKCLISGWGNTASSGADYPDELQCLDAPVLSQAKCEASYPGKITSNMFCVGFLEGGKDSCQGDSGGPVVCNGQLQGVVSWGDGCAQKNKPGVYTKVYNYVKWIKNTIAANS

Compound	Ki [1]	Ki [2]	further results
Cc1nc(N)ccc1CNC(=O)Cn1c(C)ccc(NCCc2ccccc2)c1=O	2.3 nM	4.3 µM	
Cc1cc(N)nc(C)c1CNC(=O)Cn1c(C)ccc(NS(=O)(=O)Cc2ccccc2)c1=O	0.33 nM	2.1 µM	
Cc1cc(N)ncc1CNC(=O)Cn1c(C)ccc(NS(=O)(=O)Cc2ccccc2)c1=O	12 nM	1.5 µM	
Cc1ccc(NS(=O)(=O)Cc2ccccc2)c(=O)n1CC(=O)NCc1ccc(N)nc1	11 nM	3 µM	
Cc1nc(N)ccc1CNC(=O)Cn1cccc(NS(=O)(=O)Cc2ccccc2)c1=O	26 nM	20 µM	
Cc1nc(N)ccc1CNC(=O)Cn1c(C)ccc(NS(=O)(=O)Cc2ccccc2)c1=O.Cl			half-life [3]: 145 min; bioavailability [4]: 19%; bioavailability [5]: 44%; Cmax [6]: 990 nM; half-life [7]: 90 min
Cc1nc(N)ccc1CNC(=O)Cn1c(C)ccc(NS(=O)(=O)Cc2ccccc2)c1=O [L-374087]			Incidence of occlusion [8]: 0; Incidence of occlusion [9]: 2; Incidence of occlusion [10]: 1; Incidence of occlusion [11]: 5
